In patent US20040116293A1, “Enhanced herbicide composition” (priority 2002, published 2004):

Legend:
[1] = tested on: velvetleaf; experiment: Herbicidal activity (phytotoxicity, percent leaf area affected) of foliar sprays on velvetleaf; format: in vivo, Abutilon theophrasti (velvetleaf); conditions: for Phytotoxicity at 3 days: percent leaf area affected / Phytotoxicity at 5 days: percent leaf area affected / Phytotoxicity at 7 days: percent leaf area affected: alone or + NaSA 800 ppm
From the text: (§1) In all examples, deionized ultra-pure water was used in preparing solutions. Spray solutions were used as soon as possible after mixing.
(§2) In all herbicide applications, plants were sprayed with a sufficient volume to insure good coverage, to the point of runoff of the spray solution. […] For all treatments containing both an herbicide and a salicylate or SAR inducer, these materials were mixed and applied in a single spray solution (commonly known as a tank mix). After spraying, plants were moved to the greenhouse and arranged in randomized complete blocks. Plants were evaluated for herbicidal effects (phytotoxicity) after spraying by assessing damage according to percent leaf area affected. All the data were subject to an analysis of variance, and the mean separations were determined with Duncan's multiple range test at α=0.05.

[2] = tested on: Xanthi-nc tobacco; experiment: Herbicidal activity on Xanthi-nc tobacco at three different temperatures; format: in vivo, Nicotiana tabacum (tobacco); conditions: for Phytotoxicity at 3 days: percent leaf area affected / Phytotoxicity at 5 days: percent leaf area affected / Phytotoxicity at 7 days: percent leaf area affected / Phytotoxicity at 10 days: percent leaf area affected: atrazine (Aatrex Nine-O) 250 ppm, NaSA 800 ppm
From the text: as §1, §2

[3] = tested on: corn variety Silver Queen; experiment: Foliar sprays on corn variety Silver Queen (crop damage)
From the text: as §1, §2
Atrazine is commonly used against weeds in corn and small grain crops.

[4] = tested on: Xanthi-nc tobacco; experiment: Herbicidal activity on Xanthi-nc tobacco at three different light levels; format: in vivo, Nicotiana tabacum (tobacco); conditions: for Phytotoxicity at 5 days: percent leaf area affected / Phytotoxicity at 9 days: percent leaf area affected / Phytotoxicity at 13 days: percent leaf area affected: atrazine (Aatrex Nine-O) 250 ppm, NaSA 800 ppm
From the text: as §1, §2

[5] = tested on: Xanthi-nc tobacco; experiment: Herbicidal activity (phytotoxicity, percent leaf area affected) of foliar sprays on Xanthi-nc tobacco; format: in vivo, Nicotiana tabacum (tobacco)
From the text: as §1, §2

[6] = atrazine (Aatrex Nine-O) 50 ppm
[7] = atrazine (Aatrex Nine-O) 100 ppm
[8] = atrazine (Aatrex Nine-O) 250 ppm
[9] = illumination 9.8 μmoles·m^−2·s^−1
[10] = illumination 31.3 μmoles·m^−2·s^−1
[11] = atrazine 100 ppm, alone or + NaSA 1600 ppm
[12] = atrazine 250 ppm, alone or + NaSA 1600 ppm
[13] = atrazine 500 ppm, alone or + NaSA 1600 ppm

CCNc1nc(Cl)nc(NC(C)C)n1 [Atrazine, 6-chloro-N-ethyl-N′(1-methylethyl)-1,3,5-triazine-2,4-diamine]
Phytotoxicity at 3 days: percent leaf area affected [1, 6]: 17.5 B percent | Phytotoxicity at 5 days: percent leaf area affected [1, 6]: 20 B percent | Phytotoxicity at 7 days: percent leaf area affected [1, 6]: 25 B percent | Phytotoxicity at 3 days: percent leaf area affected [1, 7]: 35 C percent | Phytotoxicity at 5 days: percent leaf area affected [1, 7]: 50 D percent | Phytotoxicity at 7 days: percent leaf area affected [1, 7]: 45 C percent | Phytotoxicity at 3 days: percent leaf area affected [1, 8]: 80 E percent | Phytotoxicity at 5 days: percent leaf area affected [1, 8]: 97.5 EF percent | Phytotoxicity at 7 days: percent leaf area affected [1, 8]: 95 D percent | Phytotoxicity at 3 days: percent leaf area affected ([2]; 15 C.): 0 A percent | Phytotoxicity at 3 days: percent leaf area affected ([2]; 25 C.): 0 A percent | Phytotoxicity at 3 days: percent leaf area affected ([2]; 35 C.): 11.0 AB percent | Phytotoxicity at 5 days: percent leaf area affected ([2]; 15 C.): 0 A percent | Phytotoxicity at 5 days: percent leaf area affected ([2]; 25 C.): 0.6 A percent | Phytotoxicity at 5 days: percent leaf area affected ([2]; 35 C.): 73.4 C percent | Phytotoxicity at 7 days: percent leaf area affected ([2]; 15 C.): 5.9 B percent | Phytotoxicity at 7 days: percent leaf area affected ([2]; 25 C.): 25 C percent | Phytotoxicity at 7 days: percent leaf area affected ([2]; 35 C.): 97.8 C percent | Phytotoxicity at 10 days: percent leaf area affected ([2]; 15 C.): 39.1 B percent | Phytotoxicity at 10 days: percent leaf area affected ([2]; 25 C.): 84.4 B percent | Phytotoxicity at 10 days: percent leaf area affected ([2]; 35 C.): 100 C percent | Percent leaf area affected at 3 days ([3]; atrazine (Aatrex Nine-O) 100 ppm, alone or + NaSA 800 ppm): 0 A Percent | Percent leaf area affected at 3 days ([3]; atrazine (Aatrex Nine-O) 500 ppm, alone or + NaSA 800 ppm): 0 A Percent | Percent leaf area affected at 3 days ([3]; atrazine (Aatrex Nine-O) 1000 ppm, alone or + NaSA 800 ppm): 0 A Percent | Phytotoxicity at 5 days: percent leaf area affected ([4]; illumination 0 (Dark)): 0.6 AB percent | Phytotoxicity at 5 days: percent leaf area affected [4, 9]: 0 A percent | Phytotoxicity at 5 days: percent leaf area affected [4, 10]: 1.9 AB percent | Phytotoxicity at 9 days: percent leaf area affected ([4]; illumination 0 (Dark)): 0.6 A percent | Phytotoxicity at 9 days: percent leaf area affected [4, 9]: 5.3 AB percent | Phytotoxicity at 9 days: percent leaf area affected [4, 10]: 67.2 B percent | Phytotoxicity at 13 days: percent leaf area affected ([4]; illumination 0 (Dark), crop oil control 35.9): 28.1 A percent | Phytotoxicity at 13 days: percent leaf area affected [4, 9]: 76.5 B percent | Phytotoxicity at 13 days: percent leaf area affected [4, 10]: 100% | Phytotoxicity at 2 days: percent leaf area affected ([5]; 2 days, atrazine (Aatrex Nine-O) 100 ppm, NaSA 800 ppm, acibenzolar-S-methyl 187 ppm, alone or tank-mixed as labelled): 1 A percent | Phytotoxicity at 3 days: percent leaf area affected ([5]; atrazine (Aatrex Nine-O) 100 ppm, NaSA 800 ppm, acibenzolar-S-methyl 187 ppm, alone or tank-mixed as labelled): 17 B percent | Phytotoxicity at 7 days: percent leaf area affected ([5]; 7 days, atrazine (Aatrex Nine-O) 100 ppm, NaSA 800 ppm, acibenzolar-S-methyl 187 ppm, alone or tank-mixed as labelled): 93.9 B percent | Phytotoxicity at 3 days: percent leaf area affected [5, 11]: 1.5 A percent | Phytotoxicity at 6 days: percent leaf area affected [5, 11]: 66.2 C percent | Phytotoxicity at 3 days: percent leaf area affected [5, 12]: 4.3 AB percent | Phytotoxicity at 6 days: percent leaf area affected [5, 12]: 77.5 D percent | Phytotoxicity at 3 days: percent leaf area affected [5, 13]: 9.5 B percent | Phytotoxicity at 6 days: percent leaf area affected [5, 13]: 82.5 DE percent

O=C([O-])c1ccccc1O.[Na+] [NaSA, sodium salicylate]
Effect of salicylate on Aatrex Nine-O herbicidal activity (in words) ([1]; velvetleaf): potentiates Aatrex Nine-O® | Effect of salicylate on atrazine herbicidal activity (in words) ([2]; range of temperatures (15-35 C)): potentiated atrazine herbicidal activity under a range of temperatures | Percent leaf area affected at 3 days ([3]; NaSA 800 ppm alone): 0 A Percent | Effect of added salicylate on atrazine herbicidal activity (in words) ([4]; darkness): conferred some activity in darkness | Effect of added salicylate on atrazine herbicidal activity (in words) ([4]; low light): potentiated atrazine herbicidal activity under low light | Effect of salicylate on Basagran (bentazon) herbicidal activity (in words) ([5]; tobacco): potentiates Basagran® | Effect of added salicylate on atrazine herbicidal activity (in words) ([5]; tobacco, apparent 3 days after application, persisted through 6 days): increased atrazine herbicidal activity
